Tests used:
mRNA [1] = experiment: mRNA synthesis by in vitro transcription (co-transcriptional capping), final product mass; assay type: biochemical; conditions: obtained from 20 μL mRNA synthesis reaction system; T7 RNA Polymerase; cap analog 4 mM; 37 °C, 2 to 3 hours
Method: (§1) 1) The plasmids were linearized and the DNA templates were purified.
(§2) 2) The mRNA was synthesized by in vitro transcription, using 11 cap structures of the present disclosure, positive control CleanCap®AG (3′OMe) (Trilink, N-7413), negative control (uncapped mRNA) and blank control (DNase/RNase-Free water), respectively.
(§3) The reaction was carried out at 37 °C for 2 to 3 hours. TURBO DNase digestion was carried out for 15 minutes. The mRNA was precipitated by LiC for 30 min or more or overnight, and the mRNA precipitate was washed with 75% ethanol, dried briefly to evaporate the ethanol, and the mRNA was redissolved with RNase-Free water.
3) The transcription product was purified, and the reaction yield was calculated to provide the test results of some compounds, as shown in Table 2.

HEK293T cells = experiment: Expression efficiency of capped luciferase mRNAs in HEK293T cells; assay type: cell-based; conditions: 6 h after transfection of capped luciferase mRNA into HEK293T cells; ratio to N-7413 (= 1)
Method: 2. Evaluation of Expression Efficiency of Different Capped Luciferase mRNAs in HEK293T Cells
1) HNE293T cells were cultured in DMEM medium containing 10% FBS and penicillin/streptomycin at 37 °C and 5% CO2.
2) The cultured HEK293T cells were spread in a 96-well plate with 1.25×10^4 cells per well.
3) After the cells completely adhered to the wall, 0.5 μg of a mixture of mRNA sample and Polyplus jetMESSENGER was added to each well of cells, and cultured at 37 °C and 5% CO2 for 6 hours.
4) The growth medium was removed from the cells to be tested and the cells were rinsed with PBS. After centrifugation to remove PBS, 50 μL of 1× lysis buffer was added thereto, and cells and all liquid were transferred to a microcentrifuge tube, and then centrifuged at 12000×g and 4 °C for 2 min.
5) The supernatant was transferred to a new tube. Fluorescence readings were detected using the ONE-Glo Luciferase Assay System Kit.
3. All compounds, N-7413, negative control and blank control were tested under the same conditions, and some experimental results in the test results are shown in Table 5.
The relative fluorescence reading results (6 h) after transfection of capped mRNA into 293T cells are now provided, as shown in Table 5. It can be seen from the FIGURE that the mRNA capped by the compound of the present disclosure has a high expression level, and some cap structures can enable higher expression efficiency of mRNA compared to N-7413.

mRNA [2] = experiment: Capping efficiency of mRNA by LC-MS; assay type: biochemical; conditions: cap analog 4 mM in in vitro transcription, RNase H cleaved 5′ fragment
Method: as §1, §2, §3
Gradient annealing was performed in a PCR instrument: […]
5) Magnetic beads were pre-treated and bound to probes.
100 μL of magnetic beads were taken and placed on a magnetic stand. The storage solution was discarded, and 100 μL of 1*BW solution was added thereto. After mixing well, the mixture was placed on the magnetic stand, and the supernatant was discarded. The wash was carried out three times in the same way. 100 μL of wash A buffer was added thereto. After mixing well, the mixture was placed on the magnetic stand, and the supernatant was discarded. The wash was carried out three times in the same way. 100 μL of wash B buffer was added thereto. After mixing well, the mixture was placed on the magnetic stand, and the supernatant was discarded. The wash was carried out three times in the same way. 120 μL of the sample was added to the magnetic bead solution and incubated for 30 min at room temperature with gentle mixing while incubating.
6) The mRNA was cut to obtain the 5′ single-stranded sequence of mRNA bound to probes.
20 μL of RNase H (5 U/μL) was added thereto, incubated at 37 °C for 3 hours, and mixed well every half hour. 100 μL of 1*BW solution was added thereto. After mixing well, the mixture was placed on the magnetic stand, and the supernatant was discarded. The wash was carried out three times in the same way. 100 μL of deionized water solution was added thereto. After mixing well, the mixture was placed on the magnetic stand, and the supernatant was discarded. The wash was carried out three times in the same way. 100 μL of 75% methanol was added thereto at 80 °C, then the mixture was heated to 80 °C on a heating plate and held for 3 min, placed on the magnetic stand, and the supernatant was aspirated. The sample was dried at room temperature for 45 min to 10 μL using an evaporative centrifuge and then resuspended in 50 μL of 100 μM EDTA/1% MeOH for LC-MS analysis.
LC-MS was used to analyze the capping efficiency of mRNA synthesized by analogues with different cap structures. The capping efficiency results of some compounds in the detection results are now provided.

Structure (SMILES)	Final product mass (mRNA [1])	Relative fluorescence reading (HEK293T cells)	Capping efficiency (mRNA [2])
CO[C@@H]1[C@H](OP(=O)(O)OC[C@H]2O[C@@H](n3cnc4c(=O)[nH]c(N)nc43)[C@H](O)[C@@H]2O)[C@@H](COP(=O)(O)OP(=O)(O)OP(=O)(O)OC[C@H]2O[C@@H](n3c[n+](C)c4c(=O)[nH]c(N)nc43)[C@H](O)[C@@H]2C)O[C@H]1n1cnc2c(N)ncnc21 [Compound 1]	96 µg	1.74	A (100% > A ≥ 95%)
CCC[C@H]1[C@@H](O)[C@H](n2c[n+](C)c3c(=O)[nH]c(N)nc32)O[C@@H]1COP(=O)(O)OP(=O)(O)OP(=O)(O)OC[C@H]1O[C@@H](n2cnc3c(N)ncnc32)[C@H](OC)[C@@H]1OP(=O)(O)OC[C@H]1O[C@@H](n2cnc3c(=O)[nH]c(N)nc32)[C@H](O)[C@@H]1O.[Na+] [Compound 5]	117 µg	1.85	A (100% > A ≥ 95%)
CO[C@@H]1[C@H](OP(=O)(O)OC[C@H]2O[C@@H](n3cnc4c(=O)[nH]c(N)nc43)[C@H](O)[C@@H]2O)[C@@H](COP(=O)(O)OP(=O)(O)OP(=O)(O)OC[C@H]2O[C@@H](n3c[n+](C)c4c(=O)[nH]c(N)nc43)[C@H](O)[C@@H]2CCF)O[C@H]1n1cnc2c(N)ncnc21 [Compound 19]	137 µg	1.52	A (100% > A ≥ 95%)
CO[C@@H]1[C@H](OCOC[C@H]2O[C@@H](n3cnc4c(=O)[nH]c(N)nc43)[C@H](O)[C@@H]2O)[C@@H](COP(=O)(O)OP(=O)(O)OP(=O)(O)OC[C@H]2O[C@@H](n3c[n+](C)c4c(=O)[nH]c(N)nc43)[C@H](O)[C@@H]2C)O[C@H]1n1cnc2c(N)ncnc21 [Compound 57]	90 µg	0.88	C (90% > C ≥ 80%)
CO[C@@H]1[C@H](OP(=O)(O)OC[C@H]2O[C@@H](n3cnc4c(=O)[nH]c(N)nc43)[C@H](O)[C@@H]2O)[C@@H](COP(=O)(O)OP(=O)([O-])OP(=O)(O)OC[C@H]2O[C@@H](n3c[n+](C)c4c(=O)[nH]c(N)nc43)[C@H](O)[C@@H]2C(=O)N(C)C)O[C@H]1n1cnc2c(N)ncnc21 [Compound 193]	105 µg	1.64	A (100% > A ≥ 95%)
CO[C@@H]1[C@H](OP(=O)(O)OC[C@H]2O[C@@H](n3cnc4c(=O)[nH]c(N)nc43)[C@H](O)[C@@H]2O)[C@@H](COP(=O)(O)OP(=O)(O)OP(=O)(O)OC[C@H]2O[C@@H](n3c[n+](C)c4c(=O)[nH]c(N)nc43)[C@H](O)[C@@H]2NC(C)=O)O[C@H]1n1cnc2c(N)ncnc21 [Compound 289]	113 µg	1.70	A (100% > A ≥ 95%)
C=CC[C@H]1[C@@H](O)[C@H](n2c[n+](C)c3c(=O)[nH]c(N)nc32)O[C@@H]1COP(=O)(O)OP(=O)(O)OP(=O)(O)OC[C@H]1O[C@@H](n2cnc3c(N)ncnc32)[C@H](OC)[C@@H]1OP(=O)(O)OC[C@H]1O[C@@H](n2cnc3c(=O)[nH]c(N)nc32)[C@H](O)[C@@H]1O [Compound 710]	108 µg	1.90	A (100% > A ≥ 95%)

— patent publication US20260365690A1, “COMPOUND FOR RNA CAPPING AND USE THEREOF” (GUANGZHOU HENOVCOM BIOSCIENCE CO., LTD., priority 2022, published 2026)
